Data set [1] deals with orthotopic, syngeneic tumor. Description: Efficacy of Brush prodrugs in orthotopic, syngeneic tumor (tumor volume, tumor weight, body weight). The format is in vivo. Here is the method:
In FIGS. 5D to 5F, “iBET” refers to OTX-015.
Tumor volumes are calculated after measuring length and width using digital calipers. Tumors were also weighted, and the body weight was measured.

The conditions of data set [2]: clinical; cited from earlier work.

Consider `Cc1sc2c(c1C)C(c1ccc(Cl)cc1)=N[C@@H](CC(=O)Nc1ccc(O)cc1)c1nnc(C)n1-2` [OTX-015], for which the body weight loss entry in data set [1] (tolerated dose 100 mpk BID, PO (FIG. 5C)) is “minor weight loss”. Besides, the body weight loss result in data set [1] (tolerated doses 5 mpk and 10 mpk (FIG. 5F)) is “minor weight loss”. Also, in data set [2], the “dose-limiting toxicity: anemia” value is given as 91%, the “dose-limiting toxicity: neutropenia” value is recorded as 51% and the “dose-limiting toxicity: thrombocytopenia” value is recorded as 96%.
